Measurements reported in PubChem BioAssay AID1259407 (Chemical Carcinogenesis Research Information System (CCRIS), 2018).
Calls of active or inactive are those of the source. How the calls were made is not given here.

Test system: CCRIS mutagenicity, Ames/micronucleus/aberration tests
Test: CCRIS mutagenicity studies

**Q.** `Nc1ccc(-c2ccccc2)cc1` was tested. Which mutagenic call (Test System: AMES SALMONELLA TYPHIMURIUM, Strain/Indicator: TA100, Metabolic Activation: TOBACCO CELL-FREE TXIMX, Method: PREINCUBATION) did it give?
**A.** The mutagenic call was “active; positive”.

**Q.** And the mutagenic call (Test System: AMES SALMONELLA TYPHIMURIUM, Strain/Indicator: TA1535, Metabolic Activation: NONE, Method: STANDARD PLATE)?
**A.** Its mutagenic call is “inactive; negative”.

**Q.** What about the mutagenic call (Test System: AMES SALMONELLA TYPHIMURIUM, Strain/Indicator: TA1537, Metabolic Activation: RAT, LIVER, S-9, AROCLOR 1254, Method: STANDARD PLATE) of the same compound?
**A.** Its mutagenic call is “active; positive”.

**Q.** What about the mutagenic call (Test System: AMES SALMONELLA TYPHIMURIUM, Strain/Indicator: TA1538, Metabolic Activation: GUINEA PIG, LIVER, INTACT HEPATOCYTES, Method: PREINCUBATION) of the same compound?
**A.** Its mutagenic call is “active; positive”.

**Q.** And the mutagenic call (Test System: AMES SALMONELLA TYPHIMURIUM, Strain/Indicator: TA1538, Metabolic Activation: GUINEA PIG, LIVER, S-9, ACETYL COENZYME A, Method: PREINCUBATION)?
**A.** Its mutagenic call is “active; positive”.

**Q.** What about the mutagenic call (Test System: AMES SALMONELLA TYPHIMURIUM, Strain/Indicator: TA1538, Metabolic Activation: GUINEA PIG, LIVER, S-9, Method: PREINCUBATION) of the same compound?
**A.** The mutagenic call was “active; positive”.

**Q.** And the mutagenic call (Test System: AMES SALMONELLA TYPHIMURIUM, Strain/Indicator: TA1538, Metabolic Activation: HAMSTER, LIVER, INTACT HEPATOCYTES, Method: PREINCUBATION)?
**A.** Its mutagenic call is “inactive; negative”.

**Q.** And the mutagenic call (Test System: AMES SALMONELLA TYPHIMURIUM, Strain/Indicator: TA1538, Metabolic Activation: HAMSTER, LIVER, S-9, ACETYL COENZYME A, Method: PREINCUBATION)?
**A.** Its mutagenic call is “active; positive”.

**Q.** What about the mutagenic call (Test System: AMES SALMONELLA TYPHIMURIUM, Strain/Indicator: TA1538, Metabolic Activation: HAMSTER, LIVER, S-9, Method: PREINCUBATION) of the same compound?
**A.** The mutagenic call was “active; positive”.

**Q.** And the mutagenic call (Test System: AMES SALMONELLA TYPHIMURIUM, Strain/Indicator: TA1538, Metabolic Activation: RAT, LIVER, INTACT HEPATOCYTES, Method: PREINCUBATION)?
**A.** Its mutagenic call is “active; positive”.

**Q.** And the mutagenic call (Test System: AMES SALMONELLA TYPHIMURIUM, Strain/Indicator: TA1538, Metabolic Activation: RAT, LIVER, S-9, ACETYL COENZYME A, Method: PREINCUBATION)?
**A.** Its mutagenic call is “active; positive”.

**Q.** And the mutagenic call (Test System: AMES SALMONELLA TYPHIMURIUM, Strain/Indicator: TA1538, Metabolic Activation: RAT, LIVER, S-9, AROCLOR 1254, Method: STANDARD PLATE)?
**A.** Its mutagenic call is “active; positive”.

**Q.** What about the mutagenic call (Test System: AMES SALMONELLA TYPHIMURIUM, Strain/Indicator: TA1538, Metabolic Activation: RAT, LIVER, S-9, KC500 OR PHENOBARBITAL, Method: LIQUID SUSPENSION) of the same compound?
**A.** The mutagenic call was “active; positive”.

**Q.** What about the mutagenic call (Test System: AMES SALMONELLA TYPHIMURIUM, Strain/Indicator: TA1538, Metabolic Activation: RAT, LIVER, S-9, PHENOBARBITAL, Method: STANDARD PLATE) of the same compound?
**A.** The mutagenic call was “active; positive”.

**Q.** What about the mutagenic call (Test System: AMES SALMONELLA TYPHIMURIUM, Strain/Indicator: TA1538, Metabolic Activation: RAT, LIVER, S-9, Method: PREINCUBATION) of the same compound?
**A.** The mutagenic call was “active; positive”.

**Q.** And the mutagenic call (Test System: AMES SALMONELLA TYPHIMURIUM, Strain/Indicator: YG1021, Metabolic Activation: TOBACCO CELL-FREE TXIMX, Method: PREINCUBATION)?
**A.** Its mutagenic call is “active; positive”.

**Q.** And the mutagenic call (Test System: AMES SALMONELLA TYPHIMURIUM, Strain/Indicator: YG1021, Metabolic Activation: TOBACCO TX1 CELLS, Method: PREINCUBATION)?
**A.** Its mutagenic call is “active; positive”.

**Q.** What about the mutagenic call (Test System: AMES SALMONELLA TYPHIMURIUM, Strain/Indicator: YG1024, Metabolic Activation: HUMAN, UROEPITHELIAL CELL, MICROSOMES, Method: PREINCUBATION) of the same compound?
**A.** The mutagenic call was “active; positive”.

**Q.** What about the mutagenic call (Test System: AMES SALMONELLA TYPHIMURIUM, Strain/Indicator: YG1024, Metabolic Activation: PLANT CELLS, Method: PREINCUBATION) of the same compound?
**A.** Its mutagenic call is “active; positive”.

**Q.** What about the mutagenic call (Test System: AMES SALMONELLA TYPHIMURIUM, Strain/Indicator: YG1024, Metabolic Activation: TOBACCO CELL-FREE EXTRACT, Method: PREINCUBATION) of the same compound?
**A.** The mutagenic call was “active; positive”.

**Q.** And the mutagenic call (Test System: AMES SALMONELLA TYPHIMURIUM, Strain/Indicator: YG1024, Metabolic Activation: TOBACCO CELL-FREE TXIMX, Method: PREINCUBATION)?
**A.** Its mutagenic call is “active; positive”.

**Q.** What about the mutagenic call (Test System: AMES SALMONELLA TYPHIMURIUM, Strain/Indicator: YG1024, Metabolic Activation: TOBACCO TX1 CELLS, Method: PREINCUBATION) of the same compound?
**A.** The mutagenic call was “active; positive”.

**Q.** And the mutagenic call (Test System: AMES SALMONELLA TYPHIMURIUM, Strain/Indicator: YG1026, Metabolic Activation: TOBACCO CELL-FREE TXIMX, Method: PREINCUBATION)?
**A.** The mutagenic call was “active; positive”.

**Q.** What about the mutagenic call (Test System: AMES SALMONELLA TYPHIMURIUM, Strain/Indicator: YG1026, Metabolic Activation: TOBACCO TX1 CELLS, Method: PREINCUBATION) of the same compound?
**A.** The mutagenic call was “inactive; negative”.

**Q.** What about the mutagenic call (Test System: AMES SALMONELLA TYPHIMURIUM, Strain/Indicator: YG1029, Metabolic Activation: MOUSE LIVER S-9, AROCLOR 1254, 10%, Method: PREINCUBATION) of the same compound?
**A.** The mutagenic call was “active; positive”.

**Q.** And the mutagenic call (Test System: AMES SALMONELLA TYPHIMURIUM, Strain/Indicator: YG1029, Metabolic Activation: RAT LIVER S-9, AROCLOR 1254, 10%, Method: PREINCUBATION)?
**A.** The mutagenic call was “active; positive”.

**Q.** And the mutagenic call (Test System: AMES SALMONELLA TYPHIMURIUM, Strain/Indicator: YG1029, Metabolic Activation: TOBACCO CELL-FREE EXTRACT, Method: PREINCUBATION)?
**A.** Its mutagenic call is “active; positive”.

**Q.** And the mutagenic call (Test System: AMES SALMONELLA TYPHIMURIUM, Strain/Indicator: YG1029, Metabolic Activation: TOBACCO CELL-FREE TXIMX, Method: PREINCUBATION)?
**A.** The mutagenic call was “active; positive”.

**Q.** What about the mutagenic call (Test System: AMES SALMONELLA TYPHIMURIUM, Strain/Indicator: YG1029, Metabolic Activation: TOBACCO TX1 CELLS, Method: PREINCUBATION) of the same compound?
**A.** Its mutagenic call is “active; positive”.

**Q.** What about the mutagenic call (Test System: Ames Salmonella Typhimurium, Strain/Indicator: TA102, Metabolic Activation: None, Method: Preincubation) of the same compound?
**A.** Its mutagenic call is “inactive; negative”.

**Q.** What about the mutagenic call (Test System: Ames Salmonella typhimurium, Strain/Indicator: TA102, Metabolic Activation: Rat, liver, S-9, Aroclor 1254, 4%, Method: Preincubation) of the same compound?
**A.** The mutagenic call was “active; positive”.

**Q.** What about the mutagenic call (Test System: CHINESE HAMSTER OVARY, Strain/Indicator: CHO-K1-BH4 (HGPRT), Metabolic Activation: RAT, LIVER, S-9, AROCLOR, Method: SUSPENSION/PLATE) of the same compound?
**A.** Its mutagenic call is “active; positive”.

**Q.** And the mutagenic call (Test System: E. COLI, Strain/Indicator: WP2 UVRA(P), Metabolic Activation: NONE, Method: STANDARD PLATE)?
**A.** Its mutagenic call is “inactive; negative”.

**Q.** What about the mutagenic call (Test System: E. COLI, Strain/Indicator: WP2 UVRA, Metabolic Activation: NONE, Method: FLUCTUATION TEST) of the same compound?
**A.** Its mutagenic call is “inactive; negative”.

**Q.** And the mutagenic call (Test System: UDS RODENT HEPATOCYTES, Strain/Indicator: THY INCORP (NON-S-PHASE), Method: AUTORADIOGRAPHY)?
**A.** The mutagenic call was “active; positive”.
